Measurements published in patent US20060035810A1, “Regulation of ins(3456)p4 signalling by a reversible kinase phosphatase and methods and compositions related thereto” (priority 2002, published 2006).

What was measured:
Type in all cases: cell-based, mouse
[1] = system: insulin granules in pancreatic β-cells; assay: Insulin granule acidification, LSG fluorescence with patch-clamp and confocal imaging
Description: FIG. 6. Ins(3,4,5,6)P4 inhibits acidification of insulin granules in pancreatic β-cells. FIG. 6A, Representative time-courses for intragranular acidification, monitored by increased fluorescence of LSG before and after establishment of the standard whole-cell configuration (see arrow) and the effect of perfusion of intracellular medium (containing 0.4 μM [Ca^2+]free except where “no calcium” is indicated; see Methods) plus either 0 (“control”), 1 or 10 μM Ins(3,4,5,6)P4. FIG. 6B, Mean (±SE) fluorescence changes (n-5-11), during the 60 s that followed establishment of the standard whole-cell configuration, for cells perfused with inositol phosphates as indicated at the base of the bar graph. Where indicated, DIDS (100 μM) were added to the bath solution 30 min prior to patching the cells. Statistical significance was evaluated by Student's unpaired t-test (* P<0.01).
The inositol phosphates used in this study were all purchased from CellSignals Inc (Lexington, Ky.). Insulin granule pH were monitored by combining the patch-clamp technique with confocal imaging. Pancreatic β-cells, isolated and cultured on glass coverslips for 2-24 h, were voltage clamped at −70 mV, as previously described (B9). LysoSensor-Green™ DND-189 (1 μM; Molecular Probes, Leiden, The Netherlands) was added during the last 30 min of cell culture and was also included in the extracellular buffer (B9) that continuously perfused the experimental chamber. All LSG experiments were performed at 20° C. to prevent exocytosis that otherwise interfered with the optical measurements (15). LSG fluorescence was excited using the 488 nm-line of a Zeiss 510 confocal microscope. The emitted light was collected with a 63×/1.3 NA oil objective and a >505 nm filter. Laser scanning was performed with low pixel resolution (128×128) and with 6 s intervals to minimize photo-bleaching. After gigaseal formation, it was ascertained that LSG fluorescence was stable for at least 30 s before the experiment commenced. The intracellular electrode solution contained: 125 mM K-glutamate, 10 mM KCl, 1 0 mM NaCl, 1 mM MgCl2, 5 mM HEPES, 3 mM Mg-ATP, 0.1 mM cAMP, 10 mM EGTA and 7 mM CaCl2 (˜0.4 μM free [Ca^2+]I; pH 7.2 with KOH). In some experiments, marked “no calcium”, there was no added Ca^2+, and the concentration of EGTA was 50 μM. Whole-cell capacitance measurements (at 33° C.) were made with the cells clamped at −70 mV, and the standard whole-cell configuration was established at t=0. Capacitance recordings were made using an EPC-7 patch-clamp amplifier equipped with the software Pulse (version 8.4 and later) and the X-chart extension (HEKA Elektronik, Lambrecht/Pfalz, Germany) (B9).

[2] = system: insulin granules in pancreatic β-cells; assay: CCCP-mediated de-acidification of insulin granules, LSG fluorescence
Description: FIG. 7A, Representative confocal images of LSG fluorescence immediately before (zero) and 60 s after perfusion of cells with intracellular buffer supplemented with 100 μM of the protonophore, CCCP, in the absence or presence of 10 μM Ins(3,4,5,6)P4. FIG. 7B, Representative time-courses for changes in LSG-fluorescence ([F/F0] as % of zero time) immediately after establishing a standard whole-cell configuration as in panel A, with intracellular medium (containing 0.4 μM [Ca^2+]free except where “no calcium” is indicated; see Methods) plus 100 μM CCCP, together with either 0 (“control”) or 10 μM Ins(3,4,5,6)P4. FIG. 7C, Mean (±SE) fluorescence changes (n=4-6), during the 60 s that followed establishment of the standard whole-cell configuration, for cells perfused with intracellular medium supplemented with inositol phosphates as indicated at the base of the bar graph ([…]).
The inositol phosphates used in this study were all purchased from CellSignals Inc (Lexington, Ky.). Insulin granule pH were monitored by combining the patch-clamp technique with confocal imaging. Pancreatic β-cells, isolated and cultured on glass coverslips for 2-24 h, were voltage clamped at −70 mV, as previously described (B9). LysoSensor-Green™ DND-189 (1 μM; Molecular Probes, Leiden, The Netherlands) was added during the last 30 min of cell culture and was also included in the extracellular buffer (B9) that continuously perfused the experimental chamber. All LSG experiments were performed at 20° C. to prevent exocytosis that otherwise interfered with the optical measurements (15). LSG fluorescence was excited using the 488 nm-line of a Zeiss 510 confocal microscope. The emitted light was collected with a 63×/1.3 NA oil objective and a >505 nm filter. Laser scanning was performed with low pixel resolution (128×128) and with 6 s intervals to minimize photo-bleaching. After gigaseal formation, it was ascertained that LSG fluorescence was stable for at least 30 s before the experiment commenced. The intracellular electrode solution contained: 125 mM K-glutamate, 10 mM KCl, 1 0 mM NaCl, 1 mM MgCl2, 5 mM HEPES, 3 mM Mg-ATP, 0.1 mM cAMP, 10 mM EGTA and 7 mM CaCl2 (˜0.4 μM free [Ca^2+]I; pH 7.2 with KOH). In some experiments, marked “no calcium”, there was no added Ca^2+, and the concentration of EGTA was 50 μM. Whole-cell capacitance measurements (at 33° C.) were made with the cells clamped at −70 mV, and the standard whole-cell configuration was established at t=0. Capacitance recordings were made using an EPC-7 patch-clamp amplifier equipped with the software Pulse (version 8.4 and later) and the X-chart extension (HEKA Elektronik, Lambrecht/Pfalz, Germany) (B9). […]

[3] = system: pancreatic β-cells; assay: Ca2+-induced exocytosis, whole-cell capacitance recordings
Description: FIG. 8A, Representative increases in cell capacitance (ΔC), reflecting exocytosis (as is described in Barg et al., J. Cell Sci 114: 2145-2154 (2001)), elicited by intracellular perfusion with intracellular solution (0.4 μM [Ca^2+]free), containing either 0 (“control”) or 10 μM Ins(3,4,5,6)P4. FIG. 8B, Average rates of capacitance increase (ΔC/Δt) during the first minute of recording, as described for FIG. 8A, in 5-17 experiments. FIG. 8C, Representative increases in ΔC, measured under the same conditions as in FIG. 8A, except that the [Ca^2+]free was 1.5 μM. FIG. 8D, Average rates of capacitance increase (ΔC/Δt) during the first minute of recording, as described for FIG. 8C, in 6-11 experiments.
The inositol phosphates used in this study were all purchased from CellSignals Inc (Lexington, Ky.). Insulin granule pH were monitored by combining the patch-clamp technique with confocal imaging. Pancreatic β-cells, isolated and cultured on glass coverslips for 2-24 h, were voltage clamped at −70 mV, as previously described (B9). LysoSensor-Green™ DND-189 (1 μM; Molecular Probes, Leiden, The Netherlands) was added during the last 30 min of cell culture and was also included in the extracellular buffer (B9) that continuously perfused the experimental chamber. All LSG experiments were performed at 20° C. to prevent exocytosis that otherwise interfered with the optical measurements (15). LSG fluorescence was excited using the 488 nm-line of a Zeiss 510 confocal microscope. The emitted light was collected with a 63×/1.3 NA oil objective and a >505 nm filter. Laser scanning was performed with low pixel resolution (128×128) and with 6 s intervals to minimize photo-bleaching. After gigaseal formation, it was ascertained that LSG fluorescence was stable for at least 30 s before the experiment commenced. The intracellular electrode solution contained: 125 mM K-glutamate, 10 mM KCl, 1 0 mM NaCl, 1 mM MgCl2, 5 mM HEPES, 3 mM Mg-ATP, 0.1 mM cAMP, 10 mM EGTA and 7 mM CaCl2 (˜0.4 μM free [Ca^2+]I; pH 7.2 with KOH). In some experiments, marked “no calcium”, there was no added Ca^2+, and the concentration of EGTA was 50 μM. Whole-cell capacitance measurements (at 33° C.) were made with the cells clamped at −70 mV, and the standard whole-cell configuration was established at t=0. […]
The degree of insulin granule acidification in pancreatic β-cells has been proposed to affect their fusogenic potential, thereby influencing the rate of insulin secretion by exocytosis (B9;B16). So we next investigated if the interaction of Ins(3,4,5,6)P4 with insulin granule Cl^− channels affected exocytosis, which we recorded by monitoring capacitance of β-cells with the whole-cell patch-clamp technique (B16). […]

Structure (SMILES): O=P(O)(O)OC1[C@@H](OP(=O)(O)O)[C@H](OP(=O)(O)O)C(O)[C@H](OP(=O)(O)O)[C@H]1OP(=O)(O)O (stereo partly shown) [Ins(1,3,4,5,6)P5, inositol 1,3,4,5,6-pentakisphosphate]
- effect on vesicle acidification ([1]; 100 μM): neither 100 μM Ins(1,4,5,6)P4 nor 100 μM Ins(1,3,4,5,6)P5 affected
- effect on rate of CCCP-promoted H+ efflux out of the granule ([2]; 100 μM, 100 μM CCCP): no effect
- effect on exocytosis ([3]; 100 μM, 0.4 μM [Ca2+]free): no effect

Structure (SMILES): O=P(O)(O)OC1C(O)C(O)C(OP(=O)(O)O)C(OP(=O)(O)O)C1OP(=O)(O)O (stereo not shown) [Ins(3,4,5,6)P4, inositol 3,4,5,6-tetrakisphosphate]
- effect on granule acidification ([1]; 1 μM (resting level)): ineffective
- reduction of the rate of acidification of the granular interior ([1]; 10 μM perfused into the cell, 0.4 μM [Ca2+]free): approximately 65%
- effect on CCCP-induced collapse of the pH gradient ([2]; 1 μM (resting level)): failed to affect
- effect on CCCP-induced H+ flux ([2]; 10 μM, 100 μM CCCP): inhibitory effect
- effect on exocytosis ([3]; 1 μM, 0.4 μM [Ca2+]free): ineffective
- effect on rate of exocytosis ([3]; 1.5 μM [Ca2+]free): did not affect
- inhibition at 10 µM ([3]; Mus musculus, 10 μM, 0.4 μM [Ca2+]free): ~50%
